Data on 3 molecules can be found in a compilation of properties of binary mixtures (doi:10.1021/je100113r).

This data set is described as follows: xn = mol fraction of the nth substance listed. The following applies: 300 K, 101 kPa.

For the molecule `CCCCCCCCCCCCCCCC[P+](CCCC)(CCCC)CCCC.[Br-]` + O, the electrical conductivity came to 0.0004 S/m (x2 = 0.201); 0.0004 S/m (x2 = 0.302); 0.0004 S/m (x2 = 0.502); 0.0004 S/m (x2 = 0.603); 0.0004 S/m (x2 = 0.802).

Consider `CCCCCCCCCCCCCCCC[P+](c1ccccc1)(c1ccccc1)c1ccccc1.[Br-]` + O, for which the electrical conductivity was 0.0003 S/m (x2 = 0.198), 0.0003 S/m (x2 = 0.498) and 0.0004 S/m (x2 = 0.598).

With `[Br-].[PH3+]CCCCCCCCCCCCCC(c1ccccc1)(c1ccccc1)c1ccccc1` + O, the electrical conductivity was 0.002 S/m (x2 = 0.503) and 0.0006 S/m (x2 = 0.603).
